According to US10597388B2, “Pyridazinone herbicides” (FMC CORPORATION, priority 2014, dated 2020):

What was measured:
Assay type in all cases: in vivo
soybean (Glycine max) = assay: Test C greenhouse herbicide test, pre- and postemergence
Outline: (§1)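 Preemergence: seeds sown in a loam soil–sand blend and sprayed with test chemicals in a non-phytotoxic solvent mixture containing surfactant. Postemergence: plants grown in peat-based medium and treated at 2 to 18 cm (1- to 4-leaf stage). After 13 to 15 d in a greenhouse, injury was visually rated 0–100 against controls.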

[1] = system: foxtail, giant (giant foxtail, Setaria faberii); assay: as above
Outline: as §1

[2] = system: wheat (winter wheat, Triticum aestivum); assay: as above
Outline: as §1

[3] = system: morningglory (Ipomoea coccinea); assay: as above
Outline: as §1

[4] = system: pigweed (Amaranthus retroflexus); assay: as above
Outline: as §1

corn (Zea mays) = assay: as above
Outline: as §1

[5] = system: blackgrass (Alopecurus myosuroides); assay: as above
Outline: as §1

[6] = system: oilseed rape (Brassica napus); assay: as above
Outline: as §1

[7] = system: johnsongrass (Sorghum halepense); assay: as above
Outline: as §1

[8] = system: ragweed (common ragweed, Ambrosia elatior); assay: as above
Outline: as §1

[9] = system: waterhemp (common waterhemp, Amaranthus rudis); assay: as above
Outline: as §1

[10] = system: galium (catchweed bedstraw, Galium aparine); assay: as above
Outline: as §1

[11] = system: velvetleaf (Abutilon theophrasti); assay: as above
Outline: as §1

[12] = system: barnyardgrass (Echinochloa crus-galli); assay: as above
Outline: as §1

[13] = system: crabgrass, large (large crabgrass, Digitaria sanguinalis); assay: as above
Outline: as §1

[14] = system: oat, wild (wild oat, Avena fatua); assay: Test C greenhouse herbicide test, postemergence; settings: for Plant response rating, Oat, Wild: Postemergence
Outline: (§2)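 Seedlings are raised in pots of peat moss–vermiculite medium with starter nutrients, then receive postemergence test chemical at the 1- to 4-leaf stage. They are kept in the greenhouse 13 to 15 d and scored visually versus controls, 0 meaning no effect and 100 complete control.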

kochia (Kochia scoparia) = assay: Test C greenhouse herbicide test, postemergence; settings: for Plant response rating, Kochia: Postemergence
Outline: as §2

[15] = Postemergence, 125 g ai/ha, scale 0 to 100, 0 is no effect, 100 is complete control
[16] = Postemergence, 250 g ai/ha, scale 0 to 100, 0 no effect, 100 complete control, 13 to 15 d
[17] = Preemergence, 31 g ai/ha, scale 0 to 100, 0 is no effect, 100 is complete control
[18] = Preemergence, 62 g ai/ha, scale 0 to 100, 0 is no effect, 100 is complete control
[19] = Preemergence, 125 g ai/ha, scale 0 to 100, 0 is no effect, 100 is complete control
[20] = Preemergence, 250 g ai/ha, scale 0 to 100 (0 no effect, 100 complete control)
[21] = postemergence, 62 g ai/ha, scale 0 to 100, 0 no effect, 100 complete control
[22] = Postemergence, 31 g ai/ha, 0 to 100 scale (0 no effect, 100 complete control)
[23] = 125 g ai/ha, scale 0 to 100, 0 is no effect, 100 is complete control
[24] = 250 g ai/ha, scale 0 to 100, 0 no effect, 100 complete control, 13 to 15 d

CCOC(=O)Oc1c(C)nn(C)c(=O)c1-c1c(C)sc2c(C)cc(C)cc12 [Compound 83]
Plant response rating, Soybean (soybean (Glycine max); [15]): 0
Plant response rating, Soybean (soybean (Glycine max); [16]): 10
Plant response rating, Soybean (soybean (Glycine max); [17]): 30
Plant response rating, Soybean (soybean (Glycine max); [18]): 0
Plant response rating, Soybean (soybean (Glycine max); [19]): 0
Soybean plant response rating (soybean (Glycine max); [20]): 0
Soybean plant response rating (soybean (Glycine max); [21]): 0
Plant response rating, Foxtail, Giant [1, 15]: 85
Plant response rating, Foxtail, Giant [1, 16]: 90
Plant response rating, Foxtail, Giant [1, 17]: 85
Plant response rating, Foxtail, Giant [1, 18]: 100
Plant response rating, Foxtail, Giant [1, 19]: 100
Foxtail, Giant plant response rating [1, 20]: 100
Foxtail, Giant plant response rating [1, 21]: 85
Plant response rating, Wheat [2, 15]: 0
Plant response rating, Wheat [2, 16]: 0
Plant response rating, Wheat [2, 17]: 0
Plant response rating, Wheat [2, 18]: 0
Plant response rating, Wheat [2, 19]: 0
Wheat plant response rating [2, 20]: 0
Wheat plant response rating [2, 21]: 0
Plant response rating, Morningglory [3, 15]: 100
Plant response rating, Morningglory [3, 16]: 98
Plant response rating, Morningglory [3, 17]: 85
Plant response rating, Morningglory [3, 18]: 90
Plant response rating, Morningglory [3, 19]: 95
Morningglory plant response rating [3, 20]: 98
Morningglory plant response rating [3, 21]: 90
Plant response rating, Pigweed [4, 15]: 90
Plant response rating, Pigweed [4, 16]: 90
Plant response rating, Pigweed [4, 17]: 100
Plant response rating, Pigweed [4, 18]: 100
Plant response rating, Pigweed [4, 19]: 100
Pigweed plant response rating [4, 20]: 100
Pigweed plant response rating [4, 21]: 85
Corn plant response rating (corn (Zea mays); [22]): 5
Plant response rating, Corn (corn (Zea mays); [15]): 10
Plant response rating, Corn (corn (Zea mays); [16]): 10
Plant response rating, Corn (corn (Zea mays); [17]): 0
Plant response rating, Corn (corn (Zea mays); [18]): 0
Plant response rating, Corn (corn (Zea mays); [19]): 0
Corn plant response rating (corn (Zea mays); [20]): 10
Corn plant response rating (corn (Zea mays); [21]): 5
Blackgrass plant response rating [5, 22]: 40
Plant response rating, Blackgrass [5, 15]: 90
Plant response rating, Blackgrass [5, 16]: 90
Plant response rating, Blackgrass [5, 17]: 70
Plant response rating, Blackgrass [5, 18]: 80
Plant response rating, Blackgrass [5, 19]: 80
Blackgrass plant response rating [5, 20]: 90
Blackgrass plant response rating [5, 21]: 80
Plant response rating, Oilseed Rape [6, 15]: 45
Plant response rating, Oilseed Rape [6, 16]: 70
Plant response rating, Oilseed Rape [6, 17]: 0
Plant response rating, Oilseed Rape [6, 18]: 0
Plant response rating, Oilseed Rape [6, 19]: 50
Oilseed Rape plant response rating [6, 20]: 50
Oilseed Rape plant response rating [6, 21]: 0
Plant response rating, Johnsongrass [7, 15]: 5
Plant response rating, Johnsongrass [7, 16]: 10
Plant response rating, Johnsongrass [7, 17]: 65
Plant response rating, Johnsongrass [7, 18]: 75
Plant response rating, Johnsongrass [7, 19]: 60
Johnsongrass plant response rating [7, 20]: 70
Johnsongrass plant response rating [7, 21]: 5
Plant response rating, Ragweed [8, 15]: 90
Plant response rating, Ragweed [8, 16]: 85
Plant response rating, Ragweed [8, 17]: 85
Plant response rating, Ragweed [8, 18]: 100
Plant response rating, Ragweed [8, 19]: 95
Ragweed plant response rating [8, 20]: 95
Ragweed plant response rating [8, 21]: 85
Plant response rating, Waterhemp [9, 15]: 60
Plant response rating, Waterhemp [9, 16]: 80
Plant response rating, Waterhemp [9, 17]: 60
Plant response rating, Waterhemp [9, 18]: 90
Plant response rating, Waterhemp [9, 19]: 100
Waterhemp plant response rating [9, 20]: 100
Waterhemp plant response rating [9, 21]: 85
Plant response rating, Galium [10, 15]: 100
Plant response rating, Galium [10, 16]: 100
Plant response rating, Galium [10, 17]: 90
Plant response rating, Galium [10, 18]: 90
Plant response rating, Galium [10, 19]: 95
Galium plant response rating [10, 20]: 95
Galium plant response rating [10, 21]: 90
Plant response rating, Velvetleaf [11, 15]: 90
Plant response rating, Velvetleaf [11, 16]: 90
Plant response rating, Velvetleaf [11, 17]: 35
Plant response rating, Velvetleaf [11, 18]: 70
Plant response rating, Velvetleaf [11, 19]: 85
Velvetleaf plant response rating [11, 20]: 90
Velvetleaf plant response rating [11, 21]: 90
Barnyardgrass plant response rating [12, 22]: 25
Plant response rating, Barnyardgrass [12, 15]: 30
Plant response rating, Barnyardgrass [12, 16]: 45
Plant response rating, Barnyardgrass [12, 17]: 50
Plant response rating, Barnyardgrass [12, 18]: 70
Plant response rating, Barnyardgrass [12, 19]: 85
Barnyardgrass plant response rating [12, 20]: 90
Barnyardgrass plant response rating [12, 21]: 25
Plant response rating, Crabgrass, Large [13, 15]: 40
Plant response rating, Crabgrass, Large [13, 16]: 55
Plant response rating, Crabgrass, Large [13, 17]: 75
Plant response rating, Crabgrass, Large [13, 18]: 65
Plant response rating, Crabgrass, Large [13, 19]: 70
Crabgrass, Large plant response rating [13, 20]: 85
Crabgrass, Large plant response rating [13, 21]: 25
Plant response rating, Oat, Wild [14, 23]: 90
Plant response rating, Oat, Wild [14, 24]: 95
Oat, Wild plant response rating [14, 21]: 90
Plant response rating, Kochia (kochia (Kochia scoparia); [23]): 65
Plant response rating, Kochia (kochia (Kochia scoparia); [24]): 80
Kochia plant response rating (kochia (Kochia scoparia); [21]): 60
